{"source": "ChEMBL document CHEMBL1201862", "about": "“PubChem BioAssay data set” (2004)", "key": {"[1]": {"experiment": "growth suppression of PTEN-null colon cells, dose response, cell-based, HCT116 PTEN knockout (AID 1047);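 further: cells exposed to compound for 60 hours before readout; potency for loss of cell viability measured by luminescence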", "assay_type": "functional"}, "[2]": {"target": "Intestinal-type alkaline phosphatase (Homo sapiens, UniProt P09923)", "sequence (P09923 whole entry)": "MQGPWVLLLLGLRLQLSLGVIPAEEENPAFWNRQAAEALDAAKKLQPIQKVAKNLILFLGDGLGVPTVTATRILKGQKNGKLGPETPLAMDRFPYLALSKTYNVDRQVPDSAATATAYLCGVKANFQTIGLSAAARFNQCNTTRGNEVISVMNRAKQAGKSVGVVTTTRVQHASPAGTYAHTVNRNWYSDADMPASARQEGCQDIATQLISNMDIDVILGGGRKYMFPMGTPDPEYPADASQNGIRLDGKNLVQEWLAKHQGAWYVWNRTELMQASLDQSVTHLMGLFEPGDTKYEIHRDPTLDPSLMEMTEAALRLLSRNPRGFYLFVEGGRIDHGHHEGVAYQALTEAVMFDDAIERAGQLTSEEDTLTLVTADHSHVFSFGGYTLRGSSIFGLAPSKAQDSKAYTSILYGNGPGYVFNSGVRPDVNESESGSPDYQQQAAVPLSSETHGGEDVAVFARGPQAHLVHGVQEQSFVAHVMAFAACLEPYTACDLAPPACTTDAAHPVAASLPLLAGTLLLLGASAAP", "experiment": "inhibition of human intestinal alkaline phosphatase – biochemical, dose response (AID 488876)", "assay_type": "functional"}, "Cytochrome P450 1A2": {"target": "T1, Cytochrome P450 1A2 (Homo sapiens, UniProt P05177)", "T1 sequence (P05177 whole entry)": "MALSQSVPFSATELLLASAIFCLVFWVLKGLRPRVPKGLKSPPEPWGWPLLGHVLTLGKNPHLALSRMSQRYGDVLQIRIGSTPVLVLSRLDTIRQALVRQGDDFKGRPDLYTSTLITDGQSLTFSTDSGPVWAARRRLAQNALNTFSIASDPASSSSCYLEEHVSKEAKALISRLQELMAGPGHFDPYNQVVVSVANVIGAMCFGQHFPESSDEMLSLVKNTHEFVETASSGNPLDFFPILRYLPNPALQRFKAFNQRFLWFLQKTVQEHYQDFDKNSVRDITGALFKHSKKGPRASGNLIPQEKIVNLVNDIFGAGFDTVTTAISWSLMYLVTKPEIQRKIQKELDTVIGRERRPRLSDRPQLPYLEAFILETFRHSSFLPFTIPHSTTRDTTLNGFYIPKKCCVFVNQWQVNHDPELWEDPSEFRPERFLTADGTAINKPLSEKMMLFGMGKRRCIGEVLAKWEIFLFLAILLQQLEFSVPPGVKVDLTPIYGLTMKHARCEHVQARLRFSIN"}, "INS1": {"system": "INS1", "experiment": "beta cell apoptosis inhibitors, cytokine rescue, dose response, luminescence, retest (AID 449756);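 further: cell death triggered by IL-1 beta plus TNF-alpha plus IFN-gamma mixture; protective hits raise ATP signal compared with cytokine alone wells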", "assay_type": "functional, cell-based", "conditions": "Rattus norvegicus"}, "[3]": {"target": "Hepatocyte nuclear factor 4-alpha (Homo sapiens, UniProt P41235)", "sequence (P41235 whole entry)": "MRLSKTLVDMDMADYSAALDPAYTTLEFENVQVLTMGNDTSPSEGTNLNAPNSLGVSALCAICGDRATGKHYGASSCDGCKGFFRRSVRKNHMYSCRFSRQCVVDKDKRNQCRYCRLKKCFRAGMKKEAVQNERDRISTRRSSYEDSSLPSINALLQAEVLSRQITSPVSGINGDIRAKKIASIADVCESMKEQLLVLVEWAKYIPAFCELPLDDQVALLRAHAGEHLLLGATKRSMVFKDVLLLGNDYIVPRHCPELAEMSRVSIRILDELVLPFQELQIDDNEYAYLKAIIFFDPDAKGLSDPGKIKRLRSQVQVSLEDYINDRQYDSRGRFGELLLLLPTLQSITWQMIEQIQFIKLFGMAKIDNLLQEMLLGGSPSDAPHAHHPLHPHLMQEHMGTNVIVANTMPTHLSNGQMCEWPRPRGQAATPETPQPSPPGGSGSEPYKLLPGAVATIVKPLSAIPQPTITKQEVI", "assay_type": "functional, cell-based"}, "[4]": {"experiment": "growth suppression of beta-catenin-knockout colon cells, dose response, cell-based, HCT116, human colon tumor (AID 1045);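 further: cells exposed to compound for 60 hours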", "assay_type": "functional"}, "Cytochrome P450 2C9": {"target": "Cytochrome P450 2C9 (Homo sapiens, UniProt P11712)", "sequence (P11712 whole entry)": "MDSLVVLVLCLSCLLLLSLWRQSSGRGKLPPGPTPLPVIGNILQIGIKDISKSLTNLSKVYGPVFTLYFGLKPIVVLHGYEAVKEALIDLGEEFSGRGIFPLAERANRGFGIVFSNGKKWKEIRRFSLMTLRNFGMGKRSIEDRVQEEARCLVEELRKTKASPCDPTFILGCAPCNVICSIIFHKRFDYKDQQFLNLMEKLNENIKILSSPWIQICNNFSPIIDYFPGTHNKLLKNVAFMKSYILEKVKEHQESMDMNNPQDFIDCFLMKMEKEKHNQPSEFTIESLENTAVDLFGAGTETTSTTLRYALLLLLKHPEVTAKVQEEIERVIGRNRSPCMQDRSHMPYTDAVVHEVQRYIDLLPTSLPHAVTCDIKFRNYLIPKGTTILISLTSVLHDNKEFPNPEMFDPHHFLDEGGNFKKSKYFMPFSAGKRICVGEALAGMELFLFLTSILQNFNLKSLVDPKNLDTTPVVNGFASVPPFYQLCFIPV"}, "[5]": {"target": "T2, Alkaline phosphatase, tissue-nonspecific isozyme (Homo sapiens, UniProt P05186)", "T2 sequence (P05186 whole entry)": "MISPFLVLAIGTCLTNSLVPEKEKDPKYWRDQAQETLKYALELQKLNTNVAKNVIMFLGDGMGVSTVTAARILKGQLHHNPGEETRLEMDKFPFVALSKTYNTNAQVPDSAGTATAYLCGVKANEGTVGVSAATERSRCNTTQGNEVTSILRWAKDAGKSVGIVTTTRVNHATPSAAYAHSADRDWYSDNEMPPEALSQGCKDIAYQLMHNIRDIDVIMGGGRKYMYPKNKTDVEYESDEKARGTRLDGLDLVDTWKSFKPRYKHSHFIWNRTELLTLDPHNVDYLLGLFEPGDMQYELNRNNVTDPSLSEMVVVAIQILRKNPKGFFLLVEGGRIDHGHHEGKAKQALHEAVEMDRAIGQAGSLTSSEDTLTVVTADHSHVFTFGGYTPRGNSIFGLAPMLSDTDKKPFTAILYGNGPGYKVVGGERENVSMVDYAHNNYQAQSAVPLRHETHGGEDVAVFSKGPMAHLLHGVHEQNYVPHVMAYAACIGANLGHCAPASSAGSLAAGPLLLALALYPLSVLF", "experiment": "TNAP enzyme inhibition by screening hits, dose response, selectivity assay for mouse IAP inhibitor project, biochemical, human TNAP, uHTS hits (AID 488906)", "assay_type": "functional"}, "[6]": {"target": "Intestinal-type alkaline phosphatase (Mus musculus, UniProt P24822)", "sequence (P24822 whole entry)": "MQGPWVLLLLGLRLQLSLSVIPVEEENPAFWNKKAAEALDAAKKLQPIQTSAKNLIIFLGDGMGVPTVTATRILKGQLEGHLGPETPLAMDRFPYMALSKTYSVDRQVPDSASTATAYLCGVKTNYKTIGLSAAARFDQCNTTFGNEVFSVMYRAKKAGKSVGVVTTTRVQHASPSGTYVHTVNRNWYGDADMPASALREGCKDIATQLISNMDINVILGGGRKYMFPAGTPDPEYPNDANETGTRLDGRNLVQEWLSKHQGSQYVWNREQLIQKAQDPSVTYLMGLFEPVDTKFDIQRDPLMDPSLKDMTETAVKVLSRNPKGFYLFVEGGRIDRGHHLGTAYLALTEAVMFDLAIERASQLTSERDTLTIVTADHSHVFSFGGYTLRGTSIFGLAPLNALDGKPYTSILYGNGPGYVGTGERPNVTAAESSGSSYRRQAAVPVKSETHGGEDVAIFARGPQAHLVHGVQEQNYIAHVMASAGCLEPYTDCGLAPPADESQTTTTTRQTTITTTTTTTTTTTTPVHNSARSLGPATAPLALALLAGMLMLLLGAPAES", "experiment": "PubChem AID 488785", "assay_type": "functional"}, "[7]": {"target": "T3, Tyrosine-protein phosphatase non-receptor type 22 (Homo sapiens, UniProt Q9Y2R2)", "T3 sequence (Q9Y2R2 whole entry)": "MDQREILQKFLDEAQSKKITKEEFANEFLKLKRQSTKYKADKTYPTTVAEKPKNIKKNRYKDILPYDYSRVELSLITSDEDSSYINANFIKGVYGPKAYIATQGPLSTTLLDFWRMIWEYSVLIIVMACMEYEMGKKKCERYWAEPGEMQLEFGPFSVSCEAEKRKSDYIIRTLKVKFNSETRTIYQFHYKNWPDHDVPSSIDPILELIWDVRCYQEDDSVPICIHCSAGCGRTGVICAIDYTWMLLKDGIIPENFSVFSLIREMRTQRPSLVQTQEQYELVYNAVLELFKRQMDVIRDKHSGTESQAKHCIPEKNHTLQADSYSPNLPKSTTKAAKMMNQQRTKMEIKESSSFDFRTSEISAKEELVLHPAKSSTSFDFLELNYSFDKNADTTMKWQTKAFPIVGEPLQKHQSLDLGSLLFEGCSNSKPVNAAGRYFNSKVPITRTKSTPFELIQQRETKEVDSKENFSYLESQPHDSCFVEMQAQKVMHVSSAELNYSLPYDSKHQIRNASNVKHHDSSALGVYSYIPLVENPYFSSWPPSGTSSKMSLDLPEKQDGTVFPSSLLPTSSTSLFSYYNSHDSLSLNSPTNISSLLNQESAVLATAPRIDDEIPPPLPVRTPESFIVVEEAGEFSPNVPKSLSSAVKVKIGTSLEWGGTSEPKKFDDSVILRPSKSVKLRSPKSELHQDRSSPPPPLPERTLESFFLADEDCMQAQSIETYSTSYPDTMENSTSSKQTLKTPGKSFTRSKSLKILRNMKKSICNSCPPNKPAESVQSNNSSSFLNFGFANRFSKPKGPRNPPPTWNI", "experiment": "LYP phosphatase inhibition for selectivity, dose response, selectivity assay for LMPTP inhibitor project, biochemical, fluorescence, LYP catalytic domain (AID 652006)", "assay_type": "functional", "conditions": "read-out: IC50_Mean"}, "[8]": {"experiment": "cytotoxicity in KRAS-transformed pancreatic duct cells, primary screen, cell-based, fluorescence, HTS (AID 431);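 further: cell line used: HPDE-C7K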", "assay_type": "functional", "conditions": "Homo sapiens"}, "[9]": {"experiment": "cytotoxicity in HPDE-C7 cells, cell-based, fluorescence, HTS (AID 430)", "assay_type": "functional", "conditions": "Homo sapiens"}, "[10]": {"target": "T4, Low molecular weight phosphotyrosine protein phosphatase (Homo sapiens, UniProt P24666)", "T4 sequence (P24666 whole entry)": "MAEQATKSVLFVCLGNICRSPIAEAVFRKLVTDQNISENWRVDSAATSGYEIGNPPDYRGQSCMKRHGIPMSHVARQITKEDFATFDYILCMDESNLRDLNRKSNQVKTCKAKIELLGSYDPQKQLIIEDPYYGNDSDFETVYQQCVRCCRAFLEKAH", "assay_type": "functional", "conditions": "read-out: IC50_Mean"}, "[11]": {"target": "T5, DNA repair and recombination protein RAD54-like (Homo sapiens, UniProt Q92698)", "T5 sequence (Q92698 whole entry)": "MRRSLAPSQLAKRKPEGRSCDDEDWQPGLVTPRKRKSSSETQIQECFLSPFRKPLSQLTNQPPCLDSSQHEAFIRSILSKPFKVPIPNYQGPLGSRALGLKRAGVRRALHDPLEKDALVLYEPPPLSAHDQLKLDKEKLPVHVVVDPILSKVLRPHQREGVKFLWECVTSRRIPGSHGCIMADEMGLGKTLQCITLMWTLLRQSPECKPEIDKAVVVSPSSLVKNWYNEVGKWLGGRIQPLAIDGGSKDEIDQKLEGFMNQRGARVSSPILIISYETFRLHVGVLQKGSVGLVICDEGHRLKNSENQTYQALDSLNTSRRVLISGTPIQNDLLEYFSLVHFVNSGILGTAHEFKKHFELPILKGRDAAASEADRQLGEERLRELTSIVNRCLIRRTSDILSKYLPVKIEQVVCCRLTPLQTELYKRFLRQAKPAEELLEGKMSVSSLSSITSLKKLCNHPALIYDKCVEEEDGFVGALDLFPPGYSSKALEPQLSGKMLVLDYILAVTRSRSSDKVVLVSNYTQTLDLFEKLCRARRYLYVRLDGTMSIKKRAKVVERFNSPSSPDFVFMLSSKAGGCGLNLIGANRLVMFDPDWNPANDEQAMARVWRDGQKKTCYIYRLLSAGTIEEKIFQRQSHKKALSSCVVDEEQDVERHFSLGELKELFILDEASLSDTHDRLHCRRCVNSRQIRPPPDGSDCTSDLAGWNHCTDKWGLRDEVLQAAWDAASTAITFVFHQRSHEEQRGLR", "experiment": "inhibitors of human RAD54 branch migration, confirmation, biochemical, fluorescence, cherry-picked samples, dose series (AID 651657)", "assay_type": "functional"}, "[12]": {"experiment": "MDA-MB-231 cell growth inhibition, dose response, cytotoxicity control for RAD54 inhibitor project, CellTiter-Glo luminescence, cherry-pick (AID 651692)", "assay_type": "functional, cell-based"}, "[13]": {"target": "T6, DNA repair protein RAD52 homolog (Homo sapiens, UniProt P43351)", "T6 sequence (P43351 whole entry)": "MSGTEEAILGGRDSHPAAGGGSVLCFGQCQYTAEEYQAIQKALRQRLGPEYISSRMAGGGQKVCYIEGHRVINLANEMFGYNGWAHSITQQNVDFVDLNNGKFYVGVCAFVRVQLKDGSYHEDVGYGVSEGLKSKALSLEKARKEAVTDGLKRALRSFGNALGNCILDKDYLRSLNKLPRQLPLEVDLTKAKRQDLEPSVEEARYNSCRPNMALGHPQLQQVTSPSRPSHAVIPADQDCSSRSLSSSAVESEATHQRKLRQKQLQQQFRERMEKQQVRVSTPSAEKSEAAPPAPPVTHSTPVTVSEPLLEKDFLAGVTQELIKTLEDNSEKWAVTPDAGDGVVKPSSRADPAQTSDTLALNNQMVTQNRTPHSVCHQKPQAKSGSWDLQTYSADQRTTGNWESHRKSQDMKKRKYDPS", "assay_type": "functional, biochemical"}, "Mu-type opioid receptor": {"target": "Mu-type opioid receptor (Homo sapiens, UniProt P35372)", "sequence (P35372 whole entry)": "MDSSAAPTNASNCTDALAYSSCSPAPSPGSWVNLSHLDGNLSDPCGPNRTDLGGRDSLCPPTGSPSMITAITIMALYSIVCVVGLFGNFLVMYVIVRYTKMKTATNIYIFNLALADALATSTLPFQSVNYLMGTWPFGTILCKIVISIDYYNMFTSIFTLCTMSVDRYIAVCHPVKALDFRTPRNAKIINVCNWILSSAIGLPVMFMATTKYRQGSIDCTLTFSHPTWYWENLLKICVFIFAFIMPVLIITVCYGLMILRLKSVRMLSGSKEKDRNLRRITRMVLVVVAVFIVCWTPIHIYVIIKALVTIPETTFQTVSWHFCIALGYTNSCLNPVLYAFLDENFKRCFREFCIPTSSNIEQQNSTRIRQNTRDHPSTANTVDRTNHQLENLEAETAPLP", "assay_type": "functional, cell-based"}, "[14]": {"target": "5-hydroxytryptamine receptor 2A (Mus musculus, UniProt P35363)", "sequence (P35363 whole entry)": "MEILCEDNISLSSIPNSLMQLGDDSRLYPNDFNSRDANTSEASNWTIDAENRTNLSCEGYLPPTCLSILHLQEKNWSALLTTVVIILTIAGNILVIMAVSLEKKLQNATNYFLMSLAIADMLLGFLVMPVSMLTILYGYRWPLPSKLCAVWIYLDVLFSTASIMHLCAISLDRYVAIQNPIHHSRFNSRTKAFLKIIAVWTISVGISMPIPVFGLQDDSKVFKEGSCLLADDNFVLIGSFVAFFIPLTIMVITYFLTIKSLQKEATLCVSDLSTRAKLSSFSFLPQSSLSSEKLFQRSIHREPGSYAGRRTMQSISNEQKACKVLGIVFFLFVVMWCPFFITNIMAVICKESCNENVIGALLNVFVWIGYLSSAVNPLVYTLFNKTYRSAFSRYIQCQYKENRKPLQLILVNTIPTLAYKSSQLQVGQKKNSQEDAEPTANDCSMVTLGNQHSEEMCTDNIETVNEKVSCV", "assay_type": "functional, cell-based"}, "[15]": {"experiment": "Luminescence Cell-Based Dose Retest to Confirm Inhibitors of Cancer Stem Cells. [Related pubchem assays (depositor defined):AID2717, AID2721]", "assay_type": "functional", "conditions": "Homo sapiens"}, "[16]": {"target": "Photoreceptor-specific nuclear receptor (Homo sapiens, UniProt Q9Y5X4)", "sequence (Q9Y5X4 whole entry)": "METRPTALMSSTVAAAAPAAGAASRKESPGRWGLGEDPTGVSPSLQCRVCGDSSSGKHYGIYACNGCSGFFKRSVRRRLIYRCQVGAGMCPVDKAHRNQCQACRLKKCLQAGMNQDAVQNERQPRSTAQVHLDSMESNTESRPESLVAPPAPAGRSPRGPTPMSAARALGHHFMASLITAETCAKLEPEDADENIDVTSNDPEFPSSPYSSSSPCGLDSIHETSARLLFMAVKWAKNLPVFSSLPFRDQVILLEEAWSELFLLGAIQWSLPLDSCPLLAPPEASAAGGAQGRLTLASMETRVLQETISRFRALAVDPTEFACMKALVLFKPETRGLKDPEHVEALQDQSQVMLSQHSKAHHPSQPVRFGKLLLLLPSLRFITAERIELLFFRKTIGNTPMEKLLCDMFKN", "assay_type": "functional, cell-based"}, "[17]": {"target": "T7, Small ubiquitin-related modifier 1 (Homo sapiens, UniProt P63165)", "T7 sequence (P63165 whole entry)": "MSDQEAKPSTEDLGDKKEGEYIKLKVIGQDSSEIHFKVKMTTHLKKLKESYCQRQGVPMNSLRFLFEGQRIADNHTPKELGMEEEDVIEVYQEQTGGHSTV", "experiment": "inhibitors of SUMO1 partner interactions, dose response, biochemical, FRET (AID 624383)", "assay_type": "functional", "conditions": "read-out: IC50_Mean"}, "[18]": {"target": "T7, Small ubiquitin-related modifier 1", "experiment": "inhibitors of SUMO1 peptide binding, dose response, biochemical, fluorescence polarization, uHTS hits (AID 624382)", "assay_type": "functional", "conditions": "read-out: IC50_Mean"}}, "note": "The source made the active and inactive calls."}
{"molecule": "CCOc1cc(/C=C2\\CCC/C(=C\\c3cc(Cl)c(O)c(OCC)c3)C2=O)cc(Cl)c1O", "values": [{"measurement": "EC50", "setting": "[1]", "value": "2.24 µM (active)"}, {"measurement": "IC50", "setting": "[2]", "value": "> 100 µM (inactive)"}, {"measurement": "AC50", "setting": "Cytochrome P450 1A2", "value": "10 µM (inconclusive)"}, {"measurement": "AC50", "setting": "INS1", "value": "8.02 µM (active)"}, {"measurement": "IC50", "setting": "[3]", "value": "6.46 µM (active)"}, {"measurement": "EC50", "setting": "[4]", "value": "2.23 µM (active)"}, {"measurement": "AC50", "setting": "Cytochrome P450 2C9", "value": "inconclusive"}, {"measurement": "IC50", "setting": "[5]", "value": "> 100 µM (inactive)"}, {"measurement": "IC50", "setting": "[6]", "value": "7.08 µM (active)"}]}
{"molecule": "CC(=O)Nc1ccc(S(=O)(=O)N2CCN(c3nc(NC4CCCC4)c4ccccc4n3)CC2)cc1", "values": [{"measurement": "EC50", "setting": "[1]", "value": "13.7 µM (active)"}, {"measurement": "IC50", "setting": "[7]", "value": "28.2 µM (inactive)"}, {"measurement": "EC50", "setting": "[8]", "value": "13.2 µM (active)"}, {"measurement": "EC50", "setting": "[9]", "value": "12.4 µM (active)"}, {"measurement": "IC50", "setting": "[10]", "value": "20.7 µM (inactive)"}, {"measurement": "EC50", "setting": "[4]", "value": "12.7 µM (active)"}]}
{"molecule": "COc1ccc(-c2oc3ncnc(NCCCN(C)C)c3c2-c2ccc(OC)cc2)cc1", "values": [{"measurement": "AC50", "setting": "[11]", "value": "21.7 µM (active)"}, {"measurement": "AC50", "setting": "[12]", "value": "12.9 µM (active)"}, {"measurement": "AC50", "setting": "[13]", "value": "3.48 µM (active)"}]}
{"molecule": "Cc1ccccc1C(=O)O/N=C(\\c1ccccc1)c1ccccn1", "values": [{"measurement": "EC50", "setting": "Mu-type opioid receptor", "value": "92.5 µM (inactive)"}, {"measurement": "EC50", "setting": "[14]", "value": "20.2 µM (inactive)"}]}
{"molecule": "CCc1ccccc1Nc1nn2c(=O)c3ccc(C(=O)NCc4ccccn4)cc3nc2s1", "values": [{"measurement": "AC50", "setting": "[15]", "value": "343 nM (active)"}, {"measurement": "IC50", "setting": "[16]", "value": "13.1 µM (inactive)"}, {"measurement": "IC50", "setting": "[17]", "value": "10.4 µM (active)"}, {"measurement": "IC50", "setting": "[18]", "value": "> 66.6 µM (inactive)"}]}
